Reference: article PMC10644263 (Biochemistry, 2020)
“And” between values parts separate entries of the source, which are not always exact repeats. Equal entries are not always repeated.

Tests used:
[1] = target: T1, SaMTAN (Staphylococcus aureus, UniProt Q5HFG2); experiment: Inhibition of SaMTAN; format: biochemical; settings: 37 °C, compared with MTDIA
T1 sequence (Q5HFG2 1-228): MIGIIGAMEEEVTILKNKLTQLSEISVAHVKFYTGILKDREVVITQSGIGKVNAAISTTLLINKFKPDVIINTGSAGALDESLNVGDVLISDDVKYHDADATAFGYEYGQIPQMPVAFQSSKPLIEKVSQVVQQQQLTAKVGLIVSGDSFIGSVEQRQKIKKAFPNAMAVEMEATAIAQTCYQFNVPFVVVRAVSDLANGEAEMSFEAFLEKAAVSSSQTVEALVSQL

[2] = target: T2, HpMTAN (Helicobacter pylori, UniProt Q9ZMY2); experiment: Inhibition of HpMTAN; format: biochemical; settings: 37 °C
T2 sequence (Q9ZMY2 1-230): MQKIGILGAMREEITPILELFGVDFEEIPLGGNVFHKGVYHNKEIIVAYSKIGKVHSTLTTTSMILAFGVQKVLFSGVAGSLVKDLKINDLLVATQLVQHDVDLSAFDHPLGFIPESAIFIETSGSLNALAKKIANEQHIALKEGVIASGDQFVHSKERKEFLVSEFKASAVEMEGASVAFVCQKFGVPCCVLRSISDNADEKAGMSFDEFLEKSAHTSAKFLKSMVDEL

Nc1ncnc2c(CN3C[C@H](CSCCOCCO)[C@@H](O)C3)c[nH]c12 [Compound 2]
improvement of Ki relative to MTDIA for SaMTAN [1]: 81 fold | improvement of Ki/affinity relative to MTDIA for HpMTAN ([2]; compared with MTDIA): 14 fold

CSC[C@H]1CN(Cc2c[nH]c3c(N)ncnc23)C[C@@H]1O [MTDIA, Methylthio-DADMe-Immucillin-A]
Ki ([2]; read-out: Ki (dissociation constant) for HpMTAN): 1 nM and 1.25 nM
